Data from the METLIN SMRT retention time set (Domingo-Almenara et al. 2019).

Assay: gradient 5% acetonitrile 3 min, to 50% in 2 min, to 85% in 15 min, held 3 min, 100 µL/min
Conditions: column: Zorbax Extend-C18 2.1 x 50 mm; eluents: water / acetonitrile, 0.1% formic acid
Outline: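 Retention time was recorded from adduct peaks, which were picked computationally and each inspected manually. Pure standards ran in mixtures of ~100 molecules on HPLC coupled to a quadrupole time-of-flight mass spectrometer, in positive and negative ionization mode, through a Zorbax Extend-C18 column (2.1 × 50 mm, 1.8 μm) at 100 μL/min. Eluents were water and acetonitrile, each with 0.1% formic acid.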

Row | SMILES | RP-LC retention time
1 | CCCN(CC1CCOC1)C(=O)Nc1cccc(Cl)c1C (configuration not stated) | 835 s
2 | Fc1ccc(-c2noc(Cn3ccnc3)n2)cc1Br | 650 s
3 | CCn1c(CCNC(=O)c2cccc(F)c2)nc2cccnc21 | 616 s
4 | CCCN(C)C(=O)c1c(C)oc2ccn(Cc3ccc(F)cc3)c(=O)c12 | 761 s
5 | Cc1ccc(-c2c(C(=O)NCCN3CCOCC3)nc3ccccn23)cc1 | 616 s
6 | CCCN1C(=O)c2c(C(=O)OC)ncn2CC1(C)C(=O)NCc1ccccc1 (configuration not stated) | 640 s
7 | COc1cc(C2CC(=O)c3c(C)nc(N4CCN(c5ccccn5)CC4)nc3C2)cc(OC)c1OC (configuration not stated) | 678 s
8 | Cc1ccc(NC(=O)N2CCC(c3nc(C(=O)N4CCOCC4)c(C)o3)CC2)c(C)c1 | 709 s
9 | O=C(CC(c1ccccc1)c1ccccc1)NCCCn1ncccc1=O | 702 s
10 | Cc1ccc(CNC(=O)c2cc3c(s2)N(C)CCC3)cc1 | 977 s
11 | O=C(NCCC1=CCCCC1)c1nc(-c2ccnc(N3CCOCC3)c2)no1 | 962 s
12 | CCc1cc(=O)n(CC(=O)Nc2ccc(OC)c(F)c2)c(N)n1 | 788 s
13 | O=C(c1ccco1)N1CCCn2nc(-c3ccncc3)cc2C1 | 560 s
14 | O=C(CCNc1c(-c2cccc(F)c2)nc2cnccn12)NCc1ccc(F)c(Cl)c1 | 806 s
15 | O=C(NCCc1c[nH]c2ccc(Cl)cc12)c1cccc(Cn2c(=O)c3cccn3c3cccnc32)c1 | 981 s
16 | Cc1ccc(CNC(=O)C2(C)Cn3nc(C(=O)NCCC(C)C)cc3C(=O)N2C)cc1 (configuration not stated) | 754 s
17 | CCn1c(=O)sc2cc(S(=O)(=O)N3CCC(C(=O)Nc4ccc(C)c(F)c4)CC3)ccc21 | 979 s
18 | CN(C)c1ccc(C(=O)N2CCC(COc3ccc(C(=O)NC4CC4)cc3)CC2)cc1 | 779 s
19 | COCCNC(=O)c1nc(-c2ccnc(N3CCCCC3)c2)no1 | 612 s

Row | SMILES | RP-LC retention time
20 | Fc1cc(F)c2nc(NCCCn3ccnc3)sc2c1 | 548 s
21 | Cc1nc2cc3c(cc2n1CC(=O)Nc1cccc(C(F)(F)F)c1)OCCO3 | 712 s
22 | Cc1ncc2c(n1)CCN(C(=O)c1ccccc1Br)C2 | 655 s
23 | COc1ccccc1-c1noc(C2CCCN2C(=O)c2ccc3c(c2)OCO3)n1 (configuration not stated) | 845 s
24 | CCOC(=O)C1CCN(C(=O)c2sc3ncn(CC(=O)N4CCCCC4C)c(=O)c3c2C)CC1 (configuration not stated) | 776 s
25 | Cc1ccc(S(=O)(=O)N2CCCC2)cc1-c1nnc(-c2ccccc2)o1 | 1010 s
26 | COC(=O)C1=CN(c2ccc(OC)cc2)c2cc(F)ccc2S1(=O)=O | 844 s
27 | O=C1CC(c2nc(-c3ccc4c(c3)OCO4)no2)CN1c1ccc(Cl)cc1 (configuration not stated) | 1030 s
28 | Cc1ccc(N2CC(c3noc(-c4ccc(F)cc4Cl)n3)CC2=O)cc1 (configuration not stated) | 1060 s
29 | CC(C)NC(=O)Cn1cnc2nc(N3CCCC(C(=O)NC4CC4)C3)sc2c1=O (configuration not stated) | 608 s
30 | CCn1c(=O)sc2cc(S(=O)(=O)N3CCC(C(=O)NC4CCCCCC4)CC3)ccc21 | 937 s
31 | Cc1ccc(CNC(=O)c2[nH]c(C)c(S(=O)(=O)N3CCCC3)c2C)cc1 | 851 s
32 | COc1ccc(CSc2nccc3c2ccn3CC(=O)N2CCN(c3ccccn3)CC2)cc1 | 592 s
33 | Cc1ccc(-c2nc(-c3ccc4c(c3)oc(=O)n4C)no2)cc1 | 1120 s
34 | Cc1cc(C)cc(N2CCC(NC(=O)Nc3cccc(C)c3C)C2=O)c1 (configuration not stated) | 922 s
35 | CCN1C(=O)C2CCCN2C(=O)c2ccccc21 (configuration not stated) | 639 s
36 | COc1ccc(Br)cc1CNC(=O)C1CCN(C(=O)c2cc3ccsc3[nH]2)CC1 | 839 s
37 | O=C(C1CCN(S(=O)(=O)c2ccc3nc(-c4ccccc4)[nH]c3c2)CC1)N1CCCC1 | 699 s
